Earlier results in USRE37771E1, “Purification of cinnamoyl-C-glycoside chromone” (Univera Pharmaceuticals, Inc., priority 1996, dated 2002).

What was measured:
[1] = in vivo assays; details in related U.S. application Ser. No. 08/391,139
epithelial cell lines = details: in vitro, details in related U.S. application Ser. No. 08/391,139

Question: What does the source list for `COc1cc(C)c2c(=O)cc(CC(C)O)oc2c1C1OC(CO)C(O)C(O)C1OC(=O)/C=C/c1ccccc1` [540 compound, 8-C-β-D-[2′-O-(E)-cinnamoyl]glycopyranosyl-2-[(S)-2-hydroxy]propyl-7-methoxy-5-methylchromone]?
Answer: anti-inflammatory activity [1]: potent anti-inflammatory activity; inhibition of EGF-induced DNA synthesis (epithelial cell lines): inhibit EGF-induced DNA synthesis
